Laboratory results taken from the NIST ThermoML archive (doi:10.1021/je0201370).

Legend:
[1] = 298.1 K; 101.33 kPa; Liquid; vibrating tube
[2] = excess molar enthalpy (molar enthalpy of mixing); xn = mol fraction of the nth substance listed; conditions: 101 kPa, Liquid

c1ccccc1 [benzene]
Conditions | mass density [kg/m3]
[1] | 873.45

CCCCCCO [hexan-1-ol]
Conditions | mass density [kg/m3]
[1] | 815.16

CCCCCCO [hexan-1-ol] + c1ccccc1
[2]
Conditions | excess molar enthalpy [kJ/mol]
298 K, x1 = 0.0619 | 0.647
298 K, x1 = 0.0988 | 0.823
298 K, x1 = 0.1383 | 0.968
298 K, x1 = 0.1909 | 1.08
298 K, x1 = 0.2287 | 1.14
298 K, x1 = 0.2675 | 1.18
298 K, x1 = 0.3137 | 1.21
298 K, x1 = 0.3792 | 1.22
298 K, x1 = 0.4153 | 1.19
298 K, x1 = 0.4625 | 1.14
298 K, x1 = 0.5107 | 1.09
298 K, x1 = 0.5648 | 1.01
298 K, x1 = 0.6192 | 0.908
298 K, x1 = 0.7214 | 0.684
298 K, x1 = 0.7711 | 0.582
298 K, x1 = 0.8482 | 0.38
298 K, x1 = 0.8884 | 0.289
298 K, x1 = 0.979 | 0.057
308 K, x1 = 0.037 | 0.483
308 K, x1 = 0.0647 | 0.723
308 K, x1 = 0.1001 | 0.908
308 K, x1 = 0.1428 | 1.07
308 K, x1 = 0.1815 | 1.17
308 K, x1 = 0.2272 | 1.25
308 K, x1 = 0.2476 | 1.28
308 K, x1 = 0.3195 | 1.33
308 K, x1 = 0.3867 | 1.35
308 K, x1 = 0.463 | 1.31
308 K, x1 = 0.4675 | 1.3
308 K, x1 = 0.5017 | 1.27
308 K, x1 = 0.5463 | 1.2
308 K, x1 = 0.593 | 1.11
308 K, x1 = 0.6577 | 0.968
308 K, x1 = 0.7485 | 0.739
308 K, x1 = 0.8067 | 0.574
308 K, x1 = 0.8318 | 0.498
308 K, x1 = 0.8867 | 0.333
308 K, x1 = 0.9323 | 0.2

CCCOC(=O)CC [propyl propanoate]
Conditions | mass density [kg/m3]
[1] | 875.53

CCCOC(=O)CC [propyl propanoate] + CCCCCCO
[2], 308 K
Conditions | excess molar enthalpy [kJ/mol]
x1 = 0.0406 | 0.231
x1 = 0.089 | 0.487
x1 = 0.1367 | 0.713
x1 = 0.1766 | 0.869
x1 = 0.247 | 1.12
x1 = 0.3217 | 1.32
x1 = 0.3805 | 1.42
x1 = 0.4198 | 1.49
x1 = 0.4667 | 1.51
x1 = 0.5259 | 1.54
x1 = 0.5961 | 1.51
x1 = 0.6484 | 1.46
x1 = 0.6999 | 1.37
x1 = 0.7542 | 1.25
x1 = 0.7995 | 1.1
x1 = 0.8595 | 0.859
x1 = 0.9109 | 0.597
x1 = 0.9496 | 0.365
